Measurements: a compilation of properties of binary mixtures (doi:10.1016/j.molliq.2017.06.010)
Blank lines part the entries; values can stand above or below the molecule they belong to.

Test: xn = mol fraction of the nth substance listed
Settings: 303.15 K, 100 kPa

- electrical conductivity (x2 = 0.015): 0.0004 S/m
- speed of sound (x2 = 0.015): 1522.1 m/s
- viscosity (x2 = 0.015): 16.6 mPa·s
- electrical conductivity (x2 = 0.0341): 0.0004 S/m
- speed of sound (x2 = 0.0341): 1524.3 m/s
- viscosity (x2 = 0.0341): 15.2 mPa·s
- electrical conductivity (x2 = 0.0417): 0.0004 S/m
- speed of sound (x2 = 0.0417): 1525.3 m/s
- viscosity (x2 = 0.0417): 14.7 mPa·s
- electrical conductivity (x2 = 0.0546): 0.0004 S/m
- speed of sound (x2 = 0.0546): 1526.8 m/s
- viscosity (x2 = 0.0546): 13.8 mPa·s
SMILES: CCC(=O)[O-].OCC[NH2+]c1ccccc1 + O

- electrical conductivity (x2 = 0.016): 0.0005 S/m
- speed of sound (x2 = 0.016): 1508.9 m/s
- viscosity (x2 = 0.016): 18.1 mPa·s
- electrical conductivity (x2 = 0.0386): 0.0005 S/m
- speed of sound (x2 = 0.0386): 1509.4 m/s
- viscosity (x2 = 0.0386): 16.9 mPa·s
- electrical conductivity (x2 = 0.0546): 0.0005 S/m
- speed of sound (x2 = 0.0546): 1509.8 m/s
- viscosity (x2 = 0.0546): 16.3 mPa·s
- electrical conductivity (x2 = 0.0724): 0.0005 S/m
- speed of sound (x2 = 0.0724): 1510.4 m/s
- viscosity (x2 = 0.0724): 15.4 mPa·s
SMILES: CCCC(=O)[O-].OCC[NH2+]c1ccccc1 + O
